This is an account of results in patent US8263605B2, “Modulators of muscarinic receptors” (Vertex Pharmaceutical Incorporated, priority 2006, dated 2012).

By Emax is commonly meant the maximal effect, on the per cent scale that the assay sets.

The target in test [1] is T1, M4 muscarinic receptor (Homo sapiens, UniProt P08173).
T1 construct: expressed in transfected cells; host or cells: CHO (M4-CHO)
T1 sequence (P08173 1-479): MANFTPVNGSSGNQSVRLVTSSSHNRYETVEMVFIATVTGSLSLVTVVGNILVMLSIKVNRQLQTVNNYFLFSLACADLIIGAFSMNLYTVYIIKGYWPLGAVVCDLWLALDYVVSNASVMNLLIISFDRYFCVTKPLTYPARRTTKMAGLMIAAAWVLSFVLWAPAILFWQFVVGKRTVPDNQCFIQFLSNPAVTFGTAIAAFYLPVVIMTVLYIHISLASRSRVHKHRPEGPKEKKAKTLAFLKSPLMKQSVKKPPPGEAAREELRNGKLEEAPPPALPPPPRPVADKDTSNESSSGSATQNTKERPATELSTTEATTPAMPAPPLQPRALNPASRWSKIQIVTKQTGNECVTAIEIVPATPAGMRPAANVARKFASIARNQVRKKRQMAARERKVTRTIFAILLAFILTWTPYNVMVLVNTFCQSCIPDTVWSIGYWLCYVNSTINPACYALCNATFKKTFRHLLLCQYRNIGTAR
The test can be described thus: Functional mobilization of intracellular calcium (FLIPR), M4-CHO cells. It is filed as cell-based. The settings on record: for Emax: 100% efficacy is the maximum response obtained with the Carbachol control; for M4 Activity: CHO cells expressing M4, calcium mobilization. The method, then: (§1) Functional Mobilization of Intracellular Calcium to Determine Muscarinic Receptor Activity:
(§2) CHO cells expressing muscarinic receptors (M1 to M5) are grown as monolayers in tissue culture flasks at 37° C. in a humidified atmosphere containing 5% CO2 and passaged every 3-5 days. The growth media is Dulbecco's modified eagles medium (DMEM, Gibco Cat#12430-054), containing 25 mM Hepes and supplemented with Fetal Bovine Serum (Hyclone, cat# SH30071.03), 0.1 mM of MEM non-essential amino acids (GIBCO, Cat#11140-050), 1 mM MEM Sodium Pyruvate (GIBCO Cat#11360-070) and 100 units/ml of Penicillin G and 100 μg/ml of Streptomycin (GIBCO Cat#15140-122). The recombinant muscarinic receptor cell lines are grown under antibiotic pressure with media containing 25 μg/ml zeocin and 500 μg/ml G418 (M1-CHO), 4 μg/ml puromycin, 50 μg/ml zeocin and 2.5 μg/ml blasticidin (M2 and M4-CHO) or 50 μg/ml zeocin and 4 μg/ml puromycin (M3 and M5-CHO).
(§3) Cells are harvested at 80-90% confluence using Versene (GIBCO Cat#15040-066), collected by centrifugation and seeded 18-24 hours prior to running the calcium assay at a density of 5,000-10,000 cells/well in […], clear-bottomed 384-well plates (BD Biocoat, poly-D-lysine, Cat#356663). The day of the experiment, the cells are washed with a plate washer (Bioteck Instrunents, ELX 405) using bath 1 buffer (140-mM NaCl, 4.5-mM KCl, 2-mM CaCl2, 1-mM MgCl2, 10-mM Hepes-Na, 10-mM Glucose, pH 7.4, with NaOH) containing 1 mM Probenecid. Next, the calcium dye Fluo-3 (25 μl/well of Fluo-3 AM at 4 μM, Molecular Probes F-1241, in Bath 1 buffer containing 1 mM Probenecid) is added to the 25 μl of Bath 1 remaining in each well after the plate wash and the dye is loaded at 37° C. in the tissue culture incubator for 60-90 min. The fluorescent dye is removed using the plate washer with Bath 1 containing 1 mM Probenecid, leaving 25 μl/well of this solution after the wash. Alternatively, cells can be loaded with the calcium indicator from Molecular Devices (Calcium 3 Assay Reagents, Cat # R7181) adding 5 μl of a 5× solution dye in Bath 1 containing 1 mM Probenecid (10 ml per dye flask cat# R7182 to generate a solution 20×) to 20 μl of the same buffer. After loading for 60 min, the experiment can be run without having to remove the dye.
(§4) Compounds are prepared at a 2× fold concentration in a 96-well plate (round bottom, Costar Corning cat#3656), by reconstituting the pre-spotted compounds in bath 1 containing 1 mM probenecid. The final concentration DMSO is 0.5%, and the amount of DMSO is normalized across the assay plate. To determine an agonist action of the compounds on muscarinic receptors, the reconstituted compounds are added (25 μl compound/well) to the cell assay plate (containing 25 μl/well) using the multi-channel robotic system of the FLIPR 3 Instrument (Molecular Devices, Sunnyvale, Calif.). To determine a functional inhibitory action of the compounds on muscarinic receptors, the reconstituted compounds are added (25 μl compound/well) to the assay plate and pre-incubated for 15 min prior to adding 25 μl of Carbachol at 3× the EC80 for each muscarinic subtype. Alternatively, the compounds can be co-applied simultaneously with the agonist. In both assay modes, the fluorescence is recorded for 60 sec (excitation wavelength is […] and emission wavelength 540 nm) using the FLIPR 3 instrument.
(§5) The potency, efficacy and selectivity of the muscarinic compounds were evaluated by screening the compound activity across the whole family (M1 to M5 cells). Compounds were also screened for activity on other proteins such as other GPCRs and ion channels to determine selectivity on M4 receptors.
(§6) Examples of activities and efficacies of the muscarinic compounds of formulae (I, Ia, Ib, Ic, Id, and Ie) on modulating M1 and M4 receptors are shown below in Table 4. […]
For orientation: Calcium flux is commonly read through the fluorescence of an indicator in the cells.

Test [2] addresses T2, M1 muscarinic receptor (Homo sapiens, UniProt P11229).
T2 construct: expressed in transfected cells; host or cells: CHO (M1-CHO)
T2 sequence (P11229 1-460): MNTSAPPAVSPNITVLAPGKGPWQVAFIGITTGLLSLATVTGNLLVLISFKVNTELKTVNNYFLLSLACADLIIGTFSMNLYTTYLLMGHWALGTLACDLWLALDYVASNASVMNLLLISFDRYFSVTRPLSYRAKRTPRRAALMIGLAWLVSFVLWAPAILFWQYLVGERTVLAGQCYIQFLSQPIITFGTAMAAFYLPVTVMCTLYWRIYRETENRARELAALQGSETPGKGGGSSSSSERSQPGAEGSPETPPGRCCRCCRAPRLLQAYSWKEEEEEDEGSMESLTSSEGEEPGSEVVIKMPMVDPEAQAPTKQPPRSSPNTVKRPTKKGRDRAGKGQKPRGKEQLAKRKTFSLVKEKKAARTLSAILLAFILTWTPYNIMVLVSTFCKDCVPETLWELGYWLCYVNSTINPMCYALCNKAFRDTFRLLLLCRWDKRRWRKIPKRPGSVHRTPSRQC
The test is described as follows: Functional mobilization of intracellular calcium (FLIPR), M1-CHO cells. Format: cell-based. As to conditions: for Emax: 100% efficacy is the maximum response obtained with the Carbachol control; for M1 Activity: CHO cells expressing M1, calcium mobilization. How it is done: as §1, §2, §3, §4, §5, §6

Each structure is given as a SMILES string. Some results are limits rather than exact numbers.

As to `Cc1ncc(N2CCC(N3CCC4(CC3)CN(C(=O)N(C)C)c3ccccc34)CC2)nc1C` [compound 88], in test [1], the maximal effect (Emax) was in the range of 25 to 100% and the “M4 Activity” value was “+++ (activity was measured to be less than 2.0 μM)”. Also, in test [2], the Emax lay in the range of 25 to 100% and the “M1 Activity” value is “++ (activity was measured to be from 2.0 μM to 10.0 μM)”.

Regarding `CCOC(=O)N1C2CCC1CC(N1CCC3(CC1)CN(C(=O)N(C)C)c1ccccc13)C2` (stereo not drawn) [compound 46], in test [1], the Emax lay within 25 to 100% and the “M4 Activity” value is “+++ (activity was measured to be less than 2.0 μM)”. In test [2], the maximal effect (Emax) fell in the range of 25 to 100% and the “M1 Activity” value is given as “+++ (activity was measured to be less than 2.0 μM)”.

In the case of `CCOC(=O)N1CCC(C)(N2CCC3(CC2)CN(C(=O)N(C)C)c2ccccc23)CC1` [compound 81], in test [1], the Emax lay within 25 to 100% and the “M4 Activity” value is “+++ (activity was measured to be less than 2.0 μM)”. Further, in test [2], the Emax lay in the range of 25 to 100% and the “M1 Activity” value was “+++ (activity was measured to be less than 2.0 μM)”.

Regarding `CN(C)C(=O)N1CCC2(CCN(C3CCN(C(=O)OCCC#N)CC3)CC2)c2ccccc21` [compound 19], in test [1], the maximum response (Emax) fell in the range of 25 to 100% and the “M4 Activity” value is recorded as “+++ (activity was measured to be less than 2.0 μM)”. Also, in test [2], the maximal effect (Emax) is under 25% and the “M1 Activity” value is recorded as “++ (activity was measured to be from 2.0 μM to 10.0 μM)”.

For `C#CCOC(=O)N1CC[C@H](CN2CCC3(CC2)CN(C(=O)N(C)C)c2ccccc23)C1` [compound 100], in test [1], the Emax was in the range of 25 to 100% and the “M4 Activity” value is on record as “+++ (activity was measured to be less than 2.0 μM)”. In test [2], the Emax lay in the range of 25 to 100% and the “M1 Activity” value was “+++ (activity was measured to be less than 2.0 μM)”.

As for `CCOC(=O)N1CCC(N2CCC3(CC2)CN(C(=O)N(C)C)c2ccccc23)CC1` [Compound No. 39, ethyl 4-(1-(dimethylcarbamoyl)spiro[indoline-3,4′-piperidine]-1′-yl)piperidine-1-carboxylate], in test [1], the maximal response (Emax) lay within 25 to 100% and the “M4 Activity” value was “+++ (activity was measured to be less than 2.0 μM)”. For the same molecule, in test [2], the maximal effect (Emax) lay in the range of 25 to 100% and the “M1 Activity” value is on record as “+++ (activity was measured to be less than 2.0 μM)”.

`CCc1nsc(N2CC[C@H](CN3CCC4(CC3)CN(C(=O)N(C)C)c3ccccc34)C2)n1` [compound 84]: in test [1], the maximum response (Emax) fell in the range of 25 to 100% and the “M4 Activity” value is “+++ (activity was measured to be less than 2.0 μM)”. In test [2], the Emax is 25 to 100% and the “M1 Activity” value is listed as “+++ (activity was measured to be less than 2.0 μM)”.

As to `C#CCOC(=O)N1C2CCC1CC(N1CCC3(CCN(C(=O)N(C)C)c4ccccc43)CC1)C2` (stereo not drawn) [Compound No. 28, prop-2-ynyl 3-(1′-(dimethylcarbamoyl)-2′,3′-dihydro-1′H-spiro[piperidine-4,4′-quinoline]-1-yl)-8-azabicyclo[3.2.1]octane-8-carboxylate], in test [1], the Emax was 25 to 100% and the “M4 Activity” value is on record as “+++ (activity was measured to be less than 2.0 μM)”. For the same molecule, in test [2], the Emax is 25 to 100% and the “M1 Activity” value is reported as “+++ (activity was measured to be less than 2.0 μM)”.

As to `CCC#CCOC(=O)N1CCC(N2CCC3(CC2)CN(C(=O)N(C)C)c2ccccc23)CC1` [compound 93], in test [1], the maximal response (Emax) was 25 to 100% and the “M4 Activity” value is “+++ (activity was measured to be less than 2.0 μM)”. Besides, in test [2], the maximal effect (Emax) is 25 to 100% and the “M1 Activity” value is “+++ (activity was measured to be less than 2.0 μM)”.

Consider `CC#CCOC(=O)N1CCC(N2CCC3(CCN(C(C)=O)c4ccccc43)CC2)CC1` [compound 13], for which, in test [1], the maximal effect (Emax) lay within 25 to 100% and the “M4 Activity” value is “+++ (activity was measured to be less than 2.0 μM)”. In test [2], the Emax lay within 25 to 100% and the “M1 Activity” value is given as “+++ (activity was measured to be less than 2.0 μM)”.

For `COC(=O)N1CCCC(N2CCC3(CC2)CN(C(=O)N(C)C)c2ccccc23)CCC1` [compound 80], in test [1], the Emax is over 100% and the “M4 Activity” value was “+++ (activity was measured to be less than 2.0 μM)”. For the same molecule, in test [2], the maximal effect (Emax) lay in the range of 25 to 100% and the “M1 Activity” value is given as “+++ (activity was measured to be less than 2.0 μM)”.

For `Cc1cncc(N2CCC(N3CCC4(CCN(C(=O)N(C)C)c5ccccc54)CC3)CC2)n1` [Compound No. 9, N,N-dimethyl-1-(1-(6-methylpyrazin-2-yl)piperidin-4-yl)-2′,31-dihydrospiro[piperidine-4,4′-quinoline]-1′-carboxamide], in test [1], the maximum response (Emax) fell in the range of 25 to 100% and the “M4 Activity” value is recorded as “+++ (activity was measured to be less than 2.0 μM)”. For the same molecule, in test [2], the maximum response (Emax) lay in the range of 25 to 100% and the “M1 Activity” value was “+++ (activity was measured to be less than 2.0 μM)”.

`CC(C)OC(=O)N1CCC(N2CCC3(CC2)CN(C(=O)N(C)C)c2ccccc23)CC1` [compound 41]: in test [1], the maximal effect (Emax) is 25 to 100% and the “M4 Activity” value is recorded as “+++ (activity was measured to be less than 2.0 μM)”. For the same molecule, in test [2], the Emax lay within 25 to 100% and the “M1 Activity” value is “+++ (activity was measured to be less than 2.0 μM)”.

Consider `CCCOC(=O)N1CCCC(N2CCC3(CC2)CN(C(=O)N(C)C)c2ccccc23)CC1` (stereo not drawn) [compound 69], for which, in test [1], the maximum response (Emax) was in the range of 25 to 100% and the “M4 Activity” value was “+++ (activity was measured to be less than 2.0 μM)”. Further, in test [2], the maximal effect (Emax) lay within 25 to 100% and the “M1 Activity” value is “+++ (activity was measured to be less than 2.0 μM)”.

As for `CC(C)OC(=O)N1CC[C@@H](CN2CCC3(CC2)CN(C(=O)N(C)C)c2ccccc23)C1` [compound 56], in test [1], the maximum response (Emax) was in the range of 25 to 100% and the “M4 Activity” value was “+++ (activity was measured to be less than 2.0 μM)”. In test [2], the Emax was 25 to 100% and the “M1 Activity” value is recorded as “++ (activity was measured to be from 2.0 μM to 10.0 μM)”.
